Assay results from patent publication US20100273167A1, “METHODS FOR DETERMINING PRENATAL ALCOHOL EXPOSURE” (priority 2009, published 2010).
“And” between values parts separate entries of the source, which are not always exact repeats. Equal entries are not always repeated. Where two headings read alike, the source gives them in different places.

Experiments:
osteopontin = details: 100 mM ethanol
Protocol: Total RNA was isolated from AFSC using PerfectPure RNA Cultured Cell Kit (5 Prime) in accordance with the manufacturer's protocol. Following the procedure, DNA digestion was included as recommended by the supplier to eliminate the contamination of genomic DNA. Quality of total RNA was assessed by the spectrophotometric ratio of 260/280. For the reverse-transcriptase reaction, SuperscriptII reverse transcription reagents (Invitrogen) were used. Briefly, 1 μg of RNA was converted to cDNA. PCR amplification was performed with TaqMan Universal Master Mix (Applied Biosystems). Reactions were performed in duplicate, containing 1 μl of cDNA, 1.25 μl probe, 12 μl Master Mix, 10 μl DI H20 and were analyzed in a 96-well optical reaction plate (Applied Biosystems). Reactions were amplified and quantified using an ABI 7700 sequence detectors and manufacturer's software (Applied Biosystems). On demand fluorescent probes for the following genes: β-actin and osteopontin. The threshold cycle (Ct) indicates the fractional cycle number at which the amount of amplified target reaches a defined threshold. ΔCt was obtained by subtracting the Ct values of endogenous controls (β-actin) from the Ct values of the target genes.

c-kit = details: in vitro alcohol exposure of AFSC
Human AFSC [1] = details: 25 mM to 100 mM ethanol
Protocol: Forty-eight hours after seeding, ethanol was added to the media and parafilm sealed to prevent evaporation. Control groups were not treated with ethanol but otherwise treated identically. […] Cell number was measured using a Coulter counter. Cell viability was determined by propidium iodine (PI) exclusion. AFSC were dissociated by 0.05% trypsin/EDTA (Gibco), centrifuged at 1,500 RPM for 5 minutes, and resuspended in 1 ml of PBS in 15 ml polypropylene tubes. 50 μl of PI, a nucleotide analogue, was added to each tube and incubated for 1 hour at room temperature. Cells were centrifuged, supernatant removed, and washed twice with a wash buffer. Samples were analyzed by flow cytometry using the FL-1 channel.

Human AFSC [2] = test system: Human AFSC
Protocol: (§1) Human AFSC were induced to differentiate into osteogenic cell types as described previously (De Coppi et al., Isolation of amniotic stem cell lines with potential for therapy. Nat Biotechnol. 2007; 25:100-106). Briefly, AFSC was cultured in DMEM low glucose with 10% FBS supplemented with 100 nM dexamethasone (Sigma-Aldrich), 10 mM beta-glycerophosphate (Sigma-Aldrich) and 0.05 mM ascorbic acid-2-phosphate (Wako Chemicals, Irving, Tex.). Cells were grown to confluency and then treated with ethanol for the first 48 hours of osteogenic differentiation to control for ethanol's antiproliferative effect. Cell number was determined after 24 and 48 hours of ethanol and bone differentiation.

Human AFSC [3] = details: 48 hours
Protocol: Human AFSC were seeded at 3,000 cells/cm^2 and maintained in culture as described previously (De Coppi et al., Isolation of amniotic stem cell lines with potential for therapy. Nat Biotechnol. 2007; 25:100-106). AFSC were grown in α-MEM medium (Gibco, Invitrogen) containing 15% ES-FBS, 1% glutamine, and 1% penicillin/streptomycin (Gibco), supplemented with 18% Chang B and 2% Chang C (Irvine Scientific) at 37° C. with 5% CO2 atmosphere. For dose-dependent studies on cell growth and viability, AFSC were treated with 25 mM, 50 mM, 75 mM, and 100 mM ethanol (Sigma-Aldrich, St. Louis, Mo.), and sealed with parafilm with media being replaced every 24 hours.
Forty-eight hours after seeding, ethanol was added to the media and parafilm sealed to prevent evaporation. Control groups were not treated with ethanol but otherwise treated identically. Proliferation rate was determined by measuring the number of AFSC after 48 hours of various ethanol concentrations. Cell number was measured using a Coulter counter. Cell viability was determined by propidium iodine (PI) exclusion. AFSC were dissociated by 0.05% trypsin/EDTA (Gibco), centrifuged at 1,500 RPM for 5 minutes, and resuspended in 1 ml of PBS in 15 ml polypropylene tubes. 50 μl of PI, […], was added to each tube and incubated for 1 hour at room temperature. Cells were centrifuged, supernatant removed, and washed twice with a wash buffer. Samples were analyzed by flow cytometry using the FL-1 channel.

[4] = test system: alkaline phosphatase activity in AFSC; details: 100 mM ethanol at day 8 (midpoint) of osteogenic differentiation for 48 hours
Protocol: as §1
Alkaline phosphatase activity was measured using p-nitrophenyl phosphate liquid substrate system (Sigma). Cells grown in 24-well plates were rinsed in PBS and incubated with 0.15% Triton X-100 for 30 mins. Two hundred uL of p-nitrophenyl phosphate solution was added to the Triton-X 100 solution. Cells were incubated in the dark for 1 hour and read spectrophotometrically at 405 nm.

[5] = over a period of 24 hours, parafilm sealed
[6] = test system: Human AFSC gene expression; details: 100 mM ethanol, 48 hours
Protocol: Microarray Analyses. Two microarray analyses were performed on AFSC sealed with parafilm for 48 hours with or without 100 mM of ethanol. Fragmented antisense cRNA was used for hybridizing to human U133 A arrays (Affymetrix, Inc. Santa Clara, Calif., USA) at the Core Genomic Facility of Wake Forest University School of Medicine.
Raw CEL files were provided by the Microarray Core Facility of the Wake Forest University School of Medicine and were then analyzed with a software package AffylmGUI (Affymetrix LIMMA, Linear Models for Microarray Data, Graphical User Interfaces) (Wettenhall et al., limmaGUI: a graphical user interface for linear modeling of microarray data. Bioinformatics. 2004; 20:3705-3706; Wettenhall et al., affylmGUI: a graphical user interface for linear modeling of single channel microarray data. Bioinformatics. 2006; 22:897-899). Within AffylmGUI, gene expression values were summarized with RMA. RMA adjusts for background noise, performs a quantile normalization, transforms the data into log base 2, and then summarizes the multiple probes into one intensity (Bolstad et al., A comparison of normalization methods for high density oligonucleotide array data based on variance and bias. Bioinformatics. 2003; 19:185-193; Irizarry et al., Exploration, normalization, and summaries of high density oligonucleotide array probe level data. Biostatistics. 2003; 4:249-264; Irizarry et al., Summaries of Affymetrix GeneChip probe level data. Nucleic Acids Res. 2003; 31:e15). Quantification of relative differences in gene expression among the groups of interest was accomplished using AffylmGUI, the sister package of limmaGUI (Wettenhall et al., limmaGUI: a graphical user interface for linear modeling of microarray data. Bioinformatics. 2004; 20:3705-3706; Wettenhall et al., affylmGUI: a graphical user interface for linear modeling of single channel microarray data. Bioinformatics. 2006; 22:897-899). AffylmGUI reads the raw Affymetrix CEL files directly, summarizes the gene expression values using RMA, and then uses LIMMA to identify statistically significant differences in gene expression (Smyth, Linear models and empirical bayes methods for assessing differential expression in microarray experiments. Stat Appl Genet Mol Biol. 2004; 3:Article3). LIMMA fits a linear model for every gene (like ANOVA or multiple regression analysis), and adjusts P values for multiple testings (Smyth, Linear models and empirical bayes methods for assessing differential expression in microarray experiments. Stat Appl Genet Mol Biol. 2004; 3:Article3). Differentially expressed genes were identified with a fold change >1.8.
To uncover enriched processes, data sets were analyzed by DAVID (Database for Annotation, Visualization and Integrated Discovery), a web-based tool that provides statistical methods for identifying over-represented biological themes and pathways within diverse and disparate gene lists (Dennis et al., DAVID: Database for Annotation, Visualization, and Integrated Discovery. Genome Biol. 2003; 4:3). DAVID also identifies over-represented biological themes in terms of their Gene Ontology (GO) terms and provides tools to visualize the distribution of genes on BioCarta and KFGG pathway maps. (Ashburner et al., Gene ontology: tool for the unification of biology. The Gene Ontology Consortium. Nat Genet. 2000; 25:25-29). GO provides consistent descriptions of genes in terms of biological processes and molecular function. Gene-enrichment analysis computes a modified Fisher exact p-value by comparing the ontological themes identified in our data set to total possible ontological processes present on the U133A chip.

With `CCO` [ethanol] the “increase in mRNA expression of osteopontin” value (shortened to “increase in mRNA expression”) (osteopontin; 24 hours, growth media, vs control AFSC) was 2.2 fold, the “increase in mRNA expression” value (osteopontin; 24 hours, osteogenic media) was 2 fold and the “increase in mRNA expression” value (osteopontin; 48 hours, growth media, vs control AFSC) was 2.8 fold change. The “effect on c-kit expression” value (c-kit) was “does not appear to affect c-kit expression”, the “effect on cell viability” value (Human AFSC [1]) was “did not have a significant effect on cell viability” and the calcium deposition (Human AFSC [2]; 100 mM ethanol during first 48 hours of osteogenic differentiation, day 23, non-exposed AFSC 77.40±26.85) was 155.06 ± 75.85 µg/mL and 155.1 ± 75.8 µg/mL. The “effect on cell number” value (Human AFSC [2]; cells grown to confluency, 24 and 48 hours of ethanol and bone differentiation (data not shown)) was “no effect on cell number”, the “reduction in proliferation rate” value (Human AFSC [3]; 25 mM ethanol, relative to cells without ethanol) was 22% and the “reduction in the rate of proliferation” value (Human AFSC [3]; 100 mM ethanol, relative to cells without ethanol) was 33%. The “effect on rate of proliferation” value (Human AFSC [3]; 25-100 mM ethanol) was “dose-dependent reduction in the rate of proliferation”, the “effect on alkaline phosphatase activity” value [4] was “no statistically significant effect on alkaline phosphatase activity” and the “ethanol concentration present in the culture media” value [5] was “did not change”. The “Basic fibroblast growth factor/FGF2 expression fold change” value ([6]; growth media) was −2.0 fold change, the “number of genes down-regulated in response to ethanol” value ([6]; growth media) was 16 genes and the “number of genes up-regulated in response to ethanol” value ([6]; growth media) was 65 genes. For the same compound, the “Count of down-regulated genes: anatomical structure development” value ([6]; gene ontology category) was 6, the “Count of down-regulated genes: circulatory system process” value ([6]; gene ontology category) was 3 and the “Count of down-regulated genes: embryonic development” value ([6]; gene ontology category) was 3. The “Count of down-regulated genes: glucose transport” value ([6]; gene ontology category) was 2, the “Count of down-regulated genes: multi-organism process” value ([6]; gene ontology category) was 3 and the “Count of down-regulated genes: negative regulation of cellular process” value ([6]; gene ontology category) was 6. For the same compound, the “Count of down-regulated genes: regulation of biological quality” value ([6]; gene ontology category) was 4, the “Count of up-regulated genes: IGF receptor signaling pathway” value ([6]; gene ontology category) was 2 and the “Count of up-regulated genes: biomineral & ossification” value ([6]; gene ontology category) was 5. The “Count of up-regulated genes: blood vessel morphogenesis” value ([6]; gene ontology category) was 4, the “Count of up-regulated genes: developmental process” value ([6]; gene ontology category) was 17 and the “Count of up-regulated genes: organ development” value ([6]; gene ontology category) was 12. For the same compound, the “Count of up-regulated genes: organ morphogenesis” value ([6]; gene ontology category) was 7, the “Count of up-regulated genes: reproductive developmental process” value ([6]; gene ontology category) was 4 and the “Count of up-regulated genes: skeletal development” value ([6]; gene ontology category) was 5. For the same compound, the “Count of up-regulated genes: system development” value ([6]; gene ontology category) was 13 and the “Count of up-regulated genes: tyrosine kinase signaling pathway” value ([6]; gene ontology category) was 4.
